According to patent US11730815B2, “Stable liquid pharmaceutical compositions comprising bendamustine” (GOOD HEALTH, LLC, priority 2018, dated 2023):
Converted amounts (≈) assume the structure as drawn. “Also recorded” adds a separate entry of the source.

Key:
Assay type in all cases: physicochemical
[1] = Solubility of bendamustine in non-aqueous solvents; settings: sonication; for solubility: organic solvent or mixture, thermodynamic from solid
Method: Bendamustine HCl was added in 5-10 mg increments to vials containing PG, PEG 200, PEG 300, PEG 400, and PEG 600, and the mixtures were sonicated. Sonication was stopped when the solution remained turbid after 8-10 minutes of sonication.
Note: The solubility might be slightly overestimated because of the generation of heat during long sonication.

[2] = Solubility of bendamustine in non-aqueous solvents in the presence of cyclodextrin; settings: for solubility: organic solvent or mixture, thermodynamic from solid
Method: Bendamustine HCl was added to vials containing 50 mg of HPβCD per mL and PG, PEG 200, PEG 300, PEG 400, or PEG 600, and the mixtures were sonicated for about 8-10 minutes after each addition of bendamustine. The addition of bendamustine was stopped when the solutions remained turbid even after sonication for about 8-10 minutes.

[3] = Solubility of HPβCD in non-aqueous solvents; settings: sonicated 10 minutes
Method: PG, PEG 200, PEG 300, PEG 400, and PEG 600 were added to vials containing hydroxy propyl-β-cyclodextrin (HPβCD) (50 mg) and sonicated for 10 minutes. […]

**Q.** Which solubility ([1]; PEG 200 (non-aqueous solvent), in PEG 200) does the source give for Cn1c(CCCC(=O)O)nc2cc(N(CCCl)CCCl)ccc21 [bendamustine, 4-(5-(bis(2-chloroethyl)amino)-1-methyl-1H-benzo[d]imidazol-2-yl)butanoic acid] here?
**A.** > 50 mg/mL

**Q.** And the solubility ([1]; PEG 300 (non-aqueous solvent), in PEG 300)?
**A.** > 50 mg/mL

**Q.** And the solubility ([1]; PEG 400 (non-aqueous solvent), in PEG 400)?
**A.** 25 to 30 mg/mL (≈ 69.8 to 83.7 mM)

**Q.** What about the solubility ([1]; PEG 600 (non-aqueous solvent), in PEG 600) of the same molecule?
**A.** 8 to 10 mg/mL (≈ 22.3 to 27.9 mM)

**Q.** And the solubility ([1]; PG (non-aqueous solvent), in PG)?
**A.** > 50 mg/mL

**Q.** And the Solubility of bendamustine ([1]; in PEG 200)?
**A.** adequate

**Q.** And the Solubility of bendamustine ([1]; in PEG 300)?
**A.** adequate

**Q.** What about the Solubility of bendamustine ([1]; in PEG 400) of the same molecule?
**A.** insufficient

**Q.** And the Solubility of bendamustine ([1]; in PEG 600)?
**A.** insufficient

**Q.** What about the Solubility of bendamustine ([1]; in PG) of the same molecule?
**A.** adequate

**Q.** And the solubility ([2]; PEG 200 with 50 mg/mL HPβCD, in PEG 200 with 50 mg HPβCD per mL)?
**A.** 50 mg/mL

**Q.** What about the solubility ([2]; PEG 300 with 50 mg/mL HPβCD, in PEG 300 with 50 mg HPβCD per mL) of the same molecule?
**A.** 50 mg/mL

**Q.** And the solubility ([2]; PEG 400 with 50 mg/mL HPβCD, in PEG 400 with 50 mg HPβCD per mL)?
**A.** 40 to 45 mg/mL

**Q.** What about the solubility ([2]; PEG 600 with 50 mg/mL HPβCD, in PEG 600 with 50 mg HPβCD per mL) of the same molecule?
**A.** 25 to 30 mg/mL

**Q.** What about the solubility ([2]; PG with 50 mg/mL HPβCD, in PG with 50 mg HPβCD per mL) of the same molecule?
**A.** 50 mg/mL

**Q.** What about the “Appearance of resulting liquid mixture” value ([2]; in PEG 200 with 50 mg HPβCD per mL) of the same molecule?
**A.** Clear solution

**Q.** And the “Appearance of resulting liquid mixture” value ([2]; in PEG 300 with 50 mg HPβCD per mL)?
**A.** Clear solution

**Q.** What about the “Appearance of resulting liquid mixture” value ([2]; in PEG 400 with 50 mg HPβCD per mL) of the same molecule?
**A.** Clear solution

**Q.** What about the “Appearance of resulting liquid mixture” value ([2]; in PEG 600 with 50 mg HPβCD per mL) of the same molecule?
**A.** Clear solution

**Q.** And the “Appearance of resulting liquid mixture” value ([2]; in PG with 50 mg HPβCD per mL)?
**A.** Clear solution

**Q.** For hydroxy propyl-β-cyclodextrin [HPβCD], which “Solubility of HPβCD: Physical observation” value (“Solubility of HPβCD” for short) ([3]; 50 mg HPβCD per mL of PEG 200) is on record?
**A.** adequate; also recorded: Clear

**Q.** What about the “Solubility of HPβCD” value ([3]; 50 mg HPβCD per mL of PEG 300) of the same molecule?
**A.** adequate; also recorded: Clear

**Q.** What about the “Solubility of HPβCD” value ([3]; 50 mg HPβCD per mL of PEG 400) of the same molecule?
**A.** insoluble; also recorded: Turbid

**Q.** What about the “Solubility of HPβCD” value ([3]; 50 mg HPβCD per mL of PEG 600) of the same molecule?
**A.** insoluble; also recorded: Turbid

**Q.** And the “Solubility of HPβCD” value ([3]; 50 mg HPβCD per mL of PG)?
**A.** adequate; also recorded: Clear
